Results taken from paper PMC6720345, “Five New Cucurbitane-Type Triterpenoid Glycosides from the Rhizomes of Hemsleya penxianensis with Cytotoxic Activities” (Molecules, 2019).
Read-outs that look alike come from different tables or passages of the source.

Legend:
[1] = system: three human tumor cell lines (Hela, MCF-7, and A-549); assay: MTT cytotoxicity assay, stated over the three tumor cell lines together; type: cell-based; details: read-out: IC50 values against Hela, MCF-7, and A-549 cell lines (span over the three lines)
Method: (§1) This used the MTT method as described in previously published literature [16, 17]. Briefly, the cells, at a density of 1.1 × 10^5 cells/mL in 96-well microtiter plate, were cultured in DMEM medium with 10% fetal bovine serum at 37 °C in a 5% CO2 incubator overnight. Then, the cells were treated with the test compounds at five concentrations in triplicate. After 24 h and 48 h of treatment, the cells were incubated with 10 μL of MTT (4 mg/mL) for another 4 h. The residual liquid was removed, and 200 µL DMSO was added. The absorbance was tested using a microplate reader at a wavelength of 570 nm.

in vitro = details: human
Method: as §1

Hela = assay: MTT cytotoxicity assay, Hela cells; details: Homo sapiens, read-out: Cytotoxicity IC50 Hela
Method: as §1

breast cancer MCF-7 = assay: MTT cytotoxicity assay, MCF-7 cells; details: Homo sapiens, read-out: Cytotoxicity IC50 MCF-7
Method: as §1

lung cancer A-549 = assay: MTT cytotoxicity assay, A-549 cells; details: Homo sapiens, read-out: Cytotoxicity IC50 A-549
Method: as §1

| IC50 at 24 h (in vitro; normal liver L-02 cells) [µM] | IC50 at 48 h (in vitro; normal liver L-02 cells) [µM] | SMILES | IC50 ([1]; treatment time not given) [µM] | IC50 at 24 h (in vitro) [µM] | IC50 at 48 h (in vitro) [µM] | IC50 (Hela; 24 h) [µM] | IC50 (Hela; 48 h) [µM] | IC50 (breast cancer MCF-7; MCF7, 24 h) [µM] | IC50 (breast cancer MCF-7; MCF7, 48 h) [µM] | IC50 (lung cancer A-549; A549, 24 h) [µM] | IC50 (lung cancer A-549; A549, 48 h) [µM] | IC50 ([1]; 48 h treatment) [µM] |
| --- | --- | --- | --- | --- | --- | --- | --- | --- | --- | --- | --- | --- |
| – | – | C/C(=C\C1C[C@](C)(O)C2[C@@H](C[C@@]3(C)[C@@H]4CC=C5[C@@H](CC[C@H](O)C5(C)C)[C@]4(C)C(=O)C[C@]23C)O1)CO[C@@H]1O[C@H](CO)[C@@H](O)[C@H](O)[C@H]1O (stereo partly drawn) [Compound 2, 3β, 20β-dihydroxycucurbita-16α-23α-epoxy-5, 24(E)-diene-11-one-26-O-D-glucopyranoside] | > 30 | > 100 | > 100 | 40.3 ± 2.56 | 31.8 ± 1.45 | 60.7 ± 4.73 | 45.9 ± 0.92 | 80.7 ± 5.16 | 47.6 ± 0.84 | – |
| – | – | C/C(=C\CC[C@@H](C)C1CC[C@@]2(C)[C@@H]3CC=C4[C@@H](CCC(O[C@@H]5O[C@H](CO)[C@@H](O)[C@H](O)[C@H]5O)C4(C)C)[C@]3(C)C(=O)C[C@]12C)CO (stereo partly drawn) [Compound 3, 26-hydroxycucurbita-5, 24(E)-diene-11-one-3-O-β-D-glucopyranoside] | – | > 100 | 68.2 ± 3.78 | 13.2 ± 1.88 | 7.55 ± 1.75 | 26.1 ± 1.22 | 10.9 ± 2.77 | 20.1 ± 1.08 | 8.55 ± 1.78 | 7.55 to 18.7 |
| – | – | C/C(=C\CC[C@@H](C)C1CC[C@@]2(C)[C@@H]3CC=C4[C@@H](CCC(O[C@@H]5O[C@H](CO)[C@@H](O)[C@H](O)[C@H]5O)C4(C)C)[C@]3(C)C(O)C[C@]12C)CO (stereo partly drawn) [Compound 4, 11α, 26-dihydroxycucurbita-5, 24(E)-diene-3-O-β-D-glucopyranoside] | – | > 100 | 89.5 ± 4.6 | 25.4 ± 3.72 | 14.8 ± 2.15 | 25.4 ± 3.15 | 12.5 ± 1.32 | 40.2 ± 3.02 | 18.7 ± 2.35 | 7.55 to 18.7 |
| 26.6 ± 1.35 | 15.4 ± 0.28 | COc1cccc2c1C(=O)c1c(O)c3c(c(O)c1C2=O)C[C@@](O)(C(=O)CO)C[C@@H]3O[C@H]1C[C@H](N)[C@H](O)[C@H](C)O1 [doxorubicin, reference compound] | – | – | – | – | – | 3.02 ± 0.04 | 2.45 ± 0.05 | 6.1 ± 0.26 | 3.85 ± 0.05 | – |
| – | – | CC(=CC1CC(C)(O)C2C(CC3(C)C4CC=C5C(CC(O)C(O)C5(C)C)C4(C)C(=O)CC23C)O1)COC1OC(CO)C(O)C(O)C1O [Compound 1, 2β, 3α, 20β-trihydroxycucurbita-16α-23α-epoxy-5, 24(E)-diene-11-one-26-O-D-glucopyranoside] | > 30 | > 100 | > 100 | 50.6 ± 4.28 | 34.4 ± 2.05 | 57.9 ± 5.16 | 45.1 ± 3.52 | 68.8 ± 4.33 | 49.4 ± 2.67 | – |
| – | – | C[C@H](CCC=C(CO)CO)C1CC[C@@]2(C)[C@@H]3C(=O)C=C4[C@@H](CCC(O[C@@H]5O[C@H](CO)[C@@H](O)[C@H](O)[C@H]5O)C4(C)C)[C@]3(C)C(=O)C[C@]12C (stereo partly drawn) [Compound 5, 26, 27-dihydroxycucurbita-5,24(E)-diene-7,11-dione-3-O-β-D-glucopyranoside] | – | > 100 | 50.5 ± 2.15 | 4.88 ± 1.05 | 2.25 ± 0.42 | 12.7 ± 2.36 | 4.72 ± 0.54 | 12.5 ± 1.28 | 5.33 ± 0.68 | 2.25 to 5.33 |
